# Results as given in patent publication US9138439B2, “Methods and compositions for modulating P300/CBP activity” (The Wistar Institute, priority 2007, dated 2015).
# Substitutions are numbered along the chain they refer to. Non-standard residues stand in square brackets, D forms with d. No end group written: not given here. Cit = NC(=O)NCCC[C@H](N)C(=O)O
# Experiments:
# [1] = tested on: p300/CBP HAT; experiment: direct radioactive assay measuring 14C-incorporation from acetyl-CoA into H4 tail peptide; type: biochemical, human; conditions: inhibitor concentration not given
# Method: (§1) In accordance with the methods of the present invention, compounds were screened to identify modulators of p300/CBP HAT activity.
# (§2) HAT Assays. HAT activity was determined by either a rapid and nonradioactive HAT assay that measures the production of CoASH by its facile reaction with DTNB, or by a radioactive assay (Lau, et al. (2000) supra; Thompson, et al. (2000) supra). […] For the radioactive assay, the concentration of [^14C]acetyl-CoA was fixed at 20 μM when measuring the steady-state kinetic parameters for peptide substrates.
# [2] = tested on: p300/CBP HAT; experiment: coupled spectrophotometric assay that measures CoASH production in real-time; type: biochemical, human; conditions: inhibitor concentration not given
# Source text: as §1
# [3] = target: T1, wild-type p300 HAT (Homo sapiens, UniProt Q09472, DEL1523-1554/M1652G); experiment: HAT assay, steady state kinetic parameters of H4 tail peptide analog substrates, wild-type p300 HAT; type: biochemical; conditions: peptide as substrate of wild-type p300 HAT
# T1 construct: linking the natural N- and C-termini (residues 1287 and 1666) of the HAT domain; made in house
# T1 sequence (Q09472 with tags, fused parts or gaps DEL1523-1554/M1652G): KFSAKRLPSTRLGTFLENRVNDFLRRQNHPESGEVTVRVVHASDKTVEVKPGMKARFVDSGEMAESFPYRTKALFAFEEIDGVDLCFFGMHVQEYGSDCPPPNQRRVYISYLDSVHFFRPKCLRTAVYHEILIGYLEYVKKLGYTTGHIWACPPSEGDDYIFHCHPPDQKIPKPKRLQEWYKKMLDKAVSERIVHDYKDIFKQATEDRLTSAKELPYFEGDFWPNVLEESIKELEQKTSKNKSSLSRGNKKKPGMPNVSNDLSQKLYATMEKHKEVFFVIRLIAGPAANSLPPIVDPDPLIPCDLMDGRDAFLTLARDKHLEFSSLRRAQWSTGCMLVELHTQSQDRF
# Method: as §2
# (§3) To test the influence of electrostatic interactions on substrate sequence selection, the steady state kinetic parameters for several synthetic H4 tail peptide analogs was determined (listed in Table 5). In H4-15, there are two other basic residues (Lys5 and Lys12) near the target Lys8. It has previously been shown that either one of the nearby Lys (or Arg replacements) is sufficient to permit efficient acetylation by full-length p300 (Thompson, et al. (2001) supra). Here, the effects of replacing Lys5 and Lys12 with Ala, the neutral residue hydrogen bonding citrulline, or Asp were compared for wild-type and mutant p300 HAT as indicated in Table 5. Analysis of the single lysine substrate, analogous to the Lys-CoA component, which contains both amino and carboxyl groups derivatized as amides (Table 5), was also conducted. Km of these substrates were generally too high to be measured (>1000 μM) under the experimental conditions, highlighting the important role of the nearby positively charged residues for substrate interaction. As shown Table 5, the 22-fold V/K difference between wild-type p300 HAT protein and the D1625R/D1628R mutant for H4-15 substrate dropped to 6-fold when using Ac-Lys-NH2 as substrate. […] Consistent with this idea, H4-12^K5A/K12A or H4-12^K5Cit/K12A which lack proximal basic residues but contain neutral hydrogen bonding residues show kinetic behavior similar to that of Ac-Lys-NH2 (Table 5).
# [4] = target: T2, D1625R/D1628R p300 HAT (Homo sapiens, UniProt Q09472, D1625R/D1628R/DEL1523-1554/M1652G); experiment: HAT assay, steady state kinetic parameters of H4 tail peptide analog substrates, D1625R/D1628R p300 HAT mutant; type: biochemical; conditions: for V/K(M^−1s^−1) for D1625R/D1628R: peptide as substrate of D1625R/D1628R p300 HAT mutant; for V/K difference between wild-type p300 HAT protein and the D1625R/D1628R mutant: ratio wild-type versus mutant for the given substrate
# T2 construct: linking the natural N- and C-termini (residues 1287 and 1666) of the HAT domain; made in house
# T2 sequence (Q09472 with tags, fused parts or gaps DEL1523-1554/D1625R/D1628R/M1652G): T1 sequence (Q09472 with tags, fused parts or gaps DEL1523-1554/M1652G) with D307R, D310R
# Method: as §2, §3
# [5] = target: PCAF (Homo sapiens, UniProt Q92831); experiment: specificity test against other acetyltransferases: PCAF; type: biochemical
# Sequence of PCAF (Q92831 whole entry, species assumed): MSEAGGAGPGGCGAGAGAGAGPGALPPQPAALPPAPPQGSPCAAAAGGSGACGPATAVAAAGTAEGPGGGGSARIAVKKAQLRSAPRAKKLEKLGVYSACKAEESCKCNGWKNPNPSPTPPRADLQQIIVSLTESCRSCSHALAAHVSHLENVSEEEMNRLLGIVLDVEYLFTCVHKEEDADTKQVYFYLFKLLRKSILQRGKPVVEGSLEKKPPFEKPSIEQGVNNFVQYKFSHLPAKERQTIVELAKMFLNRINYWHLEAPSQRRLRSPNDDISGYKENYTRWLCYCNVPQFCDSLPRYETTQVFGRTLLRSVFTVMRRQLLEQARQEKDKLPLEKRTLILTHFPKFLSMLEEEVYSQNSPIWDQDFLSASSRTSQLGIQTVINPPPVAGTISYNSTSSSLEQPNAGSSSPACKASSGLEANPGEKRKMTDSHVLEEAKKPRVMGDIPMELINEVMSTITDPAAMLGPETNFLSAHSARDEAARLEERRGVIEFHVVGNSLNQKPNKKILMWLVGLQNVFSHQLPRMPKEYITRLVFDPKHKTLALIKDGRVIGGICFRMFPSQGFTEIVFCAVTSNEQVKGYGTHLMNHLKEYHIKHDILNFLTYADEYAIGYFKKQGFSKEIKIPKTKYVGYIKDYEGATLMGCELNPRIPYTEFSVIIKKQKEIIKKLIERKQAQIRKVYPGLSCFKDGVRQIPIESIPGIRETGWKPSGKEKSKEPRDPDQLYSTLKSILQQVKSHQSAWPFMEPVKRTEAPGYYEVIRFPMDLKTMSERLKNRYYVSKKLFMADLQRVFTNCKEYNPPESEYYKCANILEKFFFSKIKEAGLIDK
# Source text: (§4) The three small molecule p300 HAT inhibitors (7, 17.2 and 17.3) identified using virtual library screening provided new leads for further development. […] From the docking model of 7 to p300 HAT (FIG. 11), important hydrogen bonding roles are indicated for the side-chains of Arg1410, Thr1411, Trp1466 (all interacting with the inhibitor carboxylate) as well as the side-chain of Tyr1467 (hydrogen bonding to the nitro group). While Arg1410 and Tyr1467 are critical for CoA binding and/or catalysis, mutation of Trp1466 is well-tolerated. To explore the specificity of the small molecule HAT inhibitors, these compounds are tested against other acetyltransferases (PCAF, AANAT, RTT109, EsaI), which assists in the prioritization of candidates for pharmacologic applications.
# [6] = tested on: AANAT; experiment: specificity test against other acetyltransferases: AANAT; type: biochemical
# Source text: as §4
# [7] = target: p300/CBP (Homo sapiens, UniProt Q09472); conditions: Lau, et al. (2000); cited from earlier work
# Sequence of p300/CBP (Q09472 whole entry): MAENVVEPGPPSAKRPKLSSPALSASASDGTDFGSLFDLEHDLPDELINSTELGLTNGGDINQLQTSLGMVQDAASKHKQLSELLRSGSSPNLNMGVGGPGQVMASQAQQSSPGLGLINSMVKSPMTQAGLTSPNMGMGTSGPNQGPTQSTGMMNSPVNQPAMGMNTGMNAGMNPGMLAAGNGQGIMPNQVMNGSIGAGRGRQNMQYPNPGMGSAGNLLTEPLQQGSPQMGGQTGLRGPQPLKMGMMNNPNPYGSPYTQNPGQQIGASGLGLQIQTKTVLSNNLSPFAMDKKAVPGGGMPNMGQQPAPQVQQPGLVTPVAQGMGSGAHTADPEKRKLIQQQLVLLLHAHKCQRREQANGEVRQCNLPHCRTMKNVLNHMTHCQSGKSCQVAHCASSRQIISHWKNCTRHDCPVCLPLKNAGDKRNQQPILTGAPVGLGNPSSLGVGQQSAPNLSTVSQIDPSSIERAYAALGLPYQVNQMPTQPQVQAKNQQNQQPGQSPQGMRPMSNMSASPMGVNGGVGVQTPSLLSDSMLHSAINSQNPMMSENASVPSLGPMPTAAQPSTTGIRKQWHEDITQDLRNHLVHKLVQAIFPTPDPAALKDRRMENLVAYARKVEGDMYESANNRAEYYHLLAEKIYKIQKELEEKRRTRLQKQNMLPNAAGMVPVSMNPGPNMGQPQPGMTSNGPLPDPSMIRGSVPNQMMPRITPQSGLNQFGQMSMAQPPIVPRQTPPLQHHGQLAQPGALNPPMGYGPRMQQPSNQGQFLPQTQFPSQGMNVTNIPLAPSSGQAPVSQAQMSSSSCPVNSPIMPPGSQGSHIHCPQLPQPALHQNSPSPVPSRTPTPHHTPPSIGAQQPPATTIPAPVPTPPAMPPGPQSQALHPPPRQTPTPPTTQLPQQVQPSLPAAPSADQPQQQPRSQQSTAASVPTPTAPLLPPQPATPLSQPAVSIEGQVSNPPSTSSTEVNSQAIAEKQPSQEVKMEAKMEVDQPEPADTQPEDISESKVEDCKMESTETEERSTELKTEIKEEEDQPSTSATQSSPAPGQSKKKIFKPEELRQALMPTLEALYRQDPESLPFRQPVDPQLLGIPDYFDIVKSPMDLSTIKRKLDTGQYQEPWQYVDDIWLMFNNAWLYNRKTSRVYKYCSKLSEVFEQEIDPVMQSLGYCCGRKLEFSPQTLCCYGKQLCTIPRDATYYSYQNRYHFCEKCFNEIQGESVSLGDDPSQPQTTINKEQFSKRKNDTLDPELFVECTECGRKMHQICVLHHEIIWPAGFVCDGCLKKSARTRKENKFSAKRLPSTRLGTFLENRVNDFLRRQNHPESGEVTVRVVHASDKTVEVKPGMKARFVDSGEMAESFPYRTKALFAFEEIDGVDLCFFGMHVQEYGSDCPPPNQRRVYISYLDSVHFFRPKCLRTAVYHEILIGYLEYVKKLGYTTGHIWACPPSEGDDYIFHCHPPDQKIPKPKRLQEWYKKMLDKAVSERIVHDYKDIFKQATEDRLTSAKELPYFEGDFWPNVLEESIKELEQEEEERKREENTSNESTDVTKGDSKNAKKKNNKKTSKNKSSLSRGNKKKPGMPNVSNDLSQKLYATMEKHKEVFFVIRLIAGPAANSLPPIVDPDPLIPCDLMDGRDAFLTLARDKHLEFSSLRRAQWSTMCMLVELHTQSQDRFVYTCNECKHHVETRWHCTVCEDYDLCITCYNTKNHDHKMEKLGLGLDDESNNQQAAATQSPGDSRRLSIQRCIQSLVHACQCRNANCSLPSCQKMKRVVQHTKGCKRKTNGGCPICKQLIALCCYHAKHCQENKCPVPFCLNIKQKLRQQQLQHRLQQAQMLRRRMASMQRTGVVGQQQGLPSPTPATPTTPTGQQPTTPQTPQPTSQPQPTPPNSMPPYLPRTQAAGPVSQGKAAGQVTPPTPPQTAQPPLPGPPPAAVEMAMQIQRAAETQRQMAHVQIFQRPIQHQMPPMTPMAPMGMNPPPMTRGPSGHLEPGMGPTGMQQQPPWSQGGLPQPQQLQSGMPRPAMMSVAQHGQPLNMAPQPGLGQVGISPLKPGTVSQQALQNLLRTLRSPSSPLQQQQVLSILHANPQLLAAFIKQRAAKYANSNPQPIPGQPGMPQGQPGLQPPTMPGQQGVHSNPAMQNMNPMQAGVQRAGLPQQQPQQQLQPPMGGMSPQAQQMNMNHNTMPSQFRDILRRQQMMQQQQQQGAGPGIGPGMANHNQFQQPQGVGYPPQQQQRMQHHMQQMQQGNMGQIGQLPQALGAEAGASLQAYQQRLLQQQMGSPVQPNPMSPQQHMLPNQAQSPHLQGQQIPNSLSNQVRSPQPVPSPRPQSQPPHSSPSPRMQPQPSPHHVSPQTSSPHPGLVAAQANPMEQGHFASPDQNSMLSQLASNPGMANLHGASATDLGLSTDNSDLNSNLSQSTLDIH
Compound,melting point [°C],% Inhibition Direct [1] [%],% Inhibition Coupled [2] [%],further results
GRGDGGKGLGDGGAK [H4-15(K5D/K12D)],–,–,–,V/K(M^−1s^−1) for W.T. [3]: 636 ± 0 M⁻¹ s⁻¹; V/K(M^−1s^−1) for D1625R/D1628R [4]: 422 ± 20 M⁻¹ s⁻¹; V/K difference between wild-type p300 HAT protein and the D1625R/D1628R mutant [4]: ≤ 2 fold
RGAGGKGLGAGA [H4-12(K5A/K12A)],–,–,–,V/K(M^−1s^−1) for W.T. [3]: 3824 ± 180 M⁻¹ s⁻¹; V/K(M^−1s^−1) for D1625R/D1628R [4]: 515 ± 15 M⁻¹ s⁻¹
CC1=NN(c2ccc(C(=O)O)cc2)C(=O)/C1=C\c1ccc(-c2cc(C)c(C)cc2[N+](=O)[O-])o1 [Compound 7],–,–,85.9,% inhibition of PCAF [5]: 0%; % inhibition of AANAT [6]: 4.8%
CC1=NN(c2ccc(C(=O)O)cc2)C(=O)/C1=C\c1ccc(-c2ccccc2F)o1 [Compound 6328730],–,67.9,90.5,–
GRGKGGKGLGKGGAK (Ac-GRGKGGKGLGKGGAK) [Compound H4-15],–,–,–,V/K(M^−1s^−1) for W.T. [3]: 25000 ± 1643 M⁻¹ s⁻¹; V/K(M^−1s^−1) for D1625R/D1628R [4]: 1162 ± 60 M⁻¹ s⁻¹; V/K difference between wild-type p300 HAT protein and the D1625R/D1628R mutant [4]: 22 fold
CC1=NN(c2ccc(C(=O)O)cc2)C(=O)/C1=C\c1ccc(-c2cc(C)ccc2[N+](=O)[O-])o1 [Compound 40174],–,79.5,–,–
"CC(=O)NC(CCCCN)C(N)=O (stereo not drawn) [Ac-Lys-NH2, CH3CO—NH-Lys-CONH2]",–,–,–,V/K(M^−1s^−1) for W.T. [3]: 1843 ± 50 M⁻¹ s⁻¹; V/K(M^−1s^−1) for D1625R/D1628R [4]: 326 ± 10 M⁻¹ s⁻¹; V/K difference between wild-type p300 HAT protein and the D1625R/D1628R mutant [4]: 6 fold
CC(=O)N[C@@H](CCCCNC(=O)CSCCNC(=O)CCNC(=O)[C@H](O)C(C)(C)COP(=O)(O)OP(=O)(O)OC[C@H]1O[C@@H](n2cnc3c(N)ncnc32)[C@H](O)[C@@H]1OP(=O)(O)O)C(N)=O [Lys-CoA],–,–,–,inhibition of p300/CBP [7]: powerful and selective inhibitor
CC1=NN(c2ccc(C(=O)O)cc2)C(=O)C1 [CM-26],–,–,16.3,–
RGXGGKGLGAGA (RG[Cit]GGKGLGAGA) [H4-12(K5X/K12A)],–,–,–,V/K(M^−1s^−1) for W.T. [3]: 5247 ± 60 M⁻¹ s⁻¹; V/K(M^−1s^−1) for D1625R/D1628R [4]: 738 ± 20 M⁻¹ s⁻¹
CC1=NN(CCCCC(=O)O)C(=O)/C1=C\c1ccc(-c2cc(C)c(C)cc2[N+](=O)[O-])o1 [Compound 9],–,55.8,92.6,–

# Now from value to compound, other results behind:
melting point [°C],Compound,% Inhibition Direct [1] [%],% Inhibition Coupled [2] [%],further results
249 to 251,CCOC(=O)c1ccccc1-c1ccc(/C=C2\C(=O)N(c3ccc(C(=O)O)cc3)N=C2C)o1 [Compound 6c],8.3,38.1,–
338 to 341,CC1=NN(c2ccc(C(=O)O)cc2)C(=O)/C1=C\c1ccc(-c2ccc([N+](=O)[O-])cc2)o1 [Compound 6b],33.8,35.6,–
220 to 223,CC1=NN(c2ccc(Cl)cc2)C(=O)/C1=C\c1ccc(-c2cc(C)c(C)cc2[N+](=O)[O-])o1 [Compound 6i],–,13.9,–
273 to 275,CC1=NN(c2ccc(C(N)=O)cc2)C(=O)/C1=C\c1ccc(-c2cc(C)c(C)cc2[N+](=O)[O-])o1 [Compound 6h],94.7,40.6,–
306 to 309,CC1=NN(c2ccc(C(=O)O)cc2)C(=O)/C1=C\c1ccc(-c2ccccc2)o1 [Compound 6a],71.5,33.7,–
260 to 262,CC1=NN(c2cccc(C(=O)O)c2)C(=O)/C1=C\c1ccc(-c2cc(C)c(C)cc2[N+](=O)[O-])o1 [Compound 6e],96.4,63.4,–
210 to 213,CC1=NN(c2ccc(S(=O)(=O)O)cc2)C(=O)/C1=C\c1ccc(-c2cc(C)c(C)cc2[N+](=O)[O-])o1 [Compound 6f],97.2,57.4,–
192 to 194,CCOC(=O)c1ccc(N2N=C(C)/C(=C/c3ccc(-c4cc(C)c(C)cc4[N+](=O)[O-])o3)C2=O)cc1 [Compound 6d],–,0,–
